Data as given in publication PMC8809408 (Frontiers in Pharmacology, 2022).

Test system: pseudotyped viruses harboring glycoprotein of vesicular stomatitis virus (VSV)
Format: cell-based

Row | Compound | luciferase activity (infection by VSV-G pseudotyped viruses)
1 | CN(C)CCCC1(c2ccc(F)cc2)OCc2cc(C#N)ccc21 (stereo not shown) [Citalopram] | remained ineffective
2 | CN(C)CCCN1c2ccccc2CCc2ccc(Cl)cc21 [Clomipramine] | reduced the infection
3 | CNCCC(Oc1ccc(C(F)(F)F)cc1)c1ccccc1 (stereo not shown) [Fluoxetine] | reduced the infection
4 | OCCN1CCN(CCC=C2c3ccccc3Sc3ccc(C(F)(F)F)cc32)CC1 [Flupenthixol] | reduced the infection
5 | COCCCC/C(=N\OCCN)c1ccc(C(F)(F)F)cc1 [Fluvoxamine] | remained ineffective
6 | Fc1ccc([C@@H]2CCNC[C@H]2COc2ccc3c(c2)OCO3)cc1 [Paroxetine] | remained ineffective
7 | CCOc1ccccc1OC(c1ccccc1)C1CNCCO1 (stereo not shown) [Reboxetine] | reduced the infection
